Assay results reported in the kinase profiling compilation of Christmann-Franck et al. (2016).

Columns and labels:
Assay in all cases: radiometric filter-binding kinase assay
Conditions in all cases: compound 10.0 µM
[1] = target: AURKA (human) (UniProt O14965)
[2] = target: BRSK2 (human) (UniProt Q8IWQ3)
[3] = target: CDK2 CCNA2 (human) (UniProt P20248+P24941)
[4] = target: CHEK1 (human) (UniProt O14757)
[5] = target: CHEK2 (human) (UniProt O96017)
[6] = target: CLK2 (human) (UniProt P49760)
[7] = target: DAPK1 (human) (UniProt P53355)
[8] = target: EEF2K (human) (UniProt O00418)
[9] = target: EPHB4 (human) (UniProt P54760)
[10] = target: ERBB4 (human) (UniProt Q15303)
[11] = target: FLT1 (human) (UniProt P17948)
[12] = target: HIPK1 (human) (UniProt Q86Z02)
Chain of HIPK1 (human) (Q86Z02 whole entry, looked up): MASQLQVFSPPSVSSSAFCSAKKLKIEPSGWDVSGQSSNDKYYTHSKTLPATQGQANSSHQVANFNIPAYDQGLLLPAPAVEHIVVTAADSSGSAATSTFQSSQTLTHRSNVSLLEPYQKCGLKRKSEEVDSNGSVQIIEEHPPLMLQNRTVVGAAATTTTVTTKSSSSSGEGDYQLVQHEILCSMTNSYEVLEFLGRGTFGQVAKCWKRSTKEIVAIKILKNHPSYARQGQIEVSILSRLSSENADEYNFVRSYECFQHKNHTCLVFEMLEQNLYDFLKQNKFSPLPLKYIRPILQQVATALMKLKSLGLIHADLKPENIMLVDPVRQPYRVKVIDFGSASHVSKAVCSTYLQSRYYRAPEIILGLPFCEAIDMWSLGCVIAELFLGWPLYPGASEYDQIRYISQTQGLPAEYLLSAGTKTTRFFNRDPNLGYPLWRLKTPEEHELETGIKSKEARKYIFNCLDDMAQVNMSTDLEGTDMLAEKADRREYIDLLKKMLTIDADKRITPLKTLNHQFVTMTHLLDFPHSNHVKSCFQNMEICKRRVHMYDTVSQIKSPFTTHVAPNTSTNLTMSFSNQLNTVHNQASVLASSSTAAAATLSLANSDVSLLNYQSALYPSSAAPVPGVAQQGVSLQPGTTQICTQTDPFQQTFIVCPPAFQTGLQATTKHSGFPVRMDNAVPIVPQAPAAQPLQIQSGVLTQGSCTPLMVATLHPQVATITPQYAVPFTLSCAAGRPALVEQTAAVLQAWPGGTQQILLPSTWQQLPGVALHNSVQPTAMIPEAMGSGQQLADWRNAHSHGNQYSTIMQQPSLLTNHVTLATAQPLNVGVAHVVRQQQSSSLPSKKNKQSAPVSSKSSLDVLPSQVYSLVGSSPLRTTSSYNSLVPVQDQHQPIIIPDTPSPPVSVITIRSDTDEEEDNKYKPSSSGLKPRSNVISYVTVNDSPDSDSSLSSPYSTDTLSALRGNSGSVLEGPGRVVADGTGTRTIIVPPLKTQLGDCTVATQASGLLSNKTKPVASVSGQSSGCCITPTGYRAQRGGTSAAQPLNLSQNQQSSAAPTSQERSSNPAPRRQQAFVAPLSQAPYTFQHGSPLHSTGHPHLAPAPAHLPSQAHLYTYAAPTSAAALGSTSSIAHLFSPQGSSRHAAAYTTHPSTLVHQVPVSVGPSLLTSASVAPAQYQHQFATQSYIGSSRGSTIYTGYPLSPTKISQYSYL

[13] = target: HIPK3 (human) (UniProt Q9H422)
Chain of HIPK3 (human) (Q9H422 whole entry, looked up): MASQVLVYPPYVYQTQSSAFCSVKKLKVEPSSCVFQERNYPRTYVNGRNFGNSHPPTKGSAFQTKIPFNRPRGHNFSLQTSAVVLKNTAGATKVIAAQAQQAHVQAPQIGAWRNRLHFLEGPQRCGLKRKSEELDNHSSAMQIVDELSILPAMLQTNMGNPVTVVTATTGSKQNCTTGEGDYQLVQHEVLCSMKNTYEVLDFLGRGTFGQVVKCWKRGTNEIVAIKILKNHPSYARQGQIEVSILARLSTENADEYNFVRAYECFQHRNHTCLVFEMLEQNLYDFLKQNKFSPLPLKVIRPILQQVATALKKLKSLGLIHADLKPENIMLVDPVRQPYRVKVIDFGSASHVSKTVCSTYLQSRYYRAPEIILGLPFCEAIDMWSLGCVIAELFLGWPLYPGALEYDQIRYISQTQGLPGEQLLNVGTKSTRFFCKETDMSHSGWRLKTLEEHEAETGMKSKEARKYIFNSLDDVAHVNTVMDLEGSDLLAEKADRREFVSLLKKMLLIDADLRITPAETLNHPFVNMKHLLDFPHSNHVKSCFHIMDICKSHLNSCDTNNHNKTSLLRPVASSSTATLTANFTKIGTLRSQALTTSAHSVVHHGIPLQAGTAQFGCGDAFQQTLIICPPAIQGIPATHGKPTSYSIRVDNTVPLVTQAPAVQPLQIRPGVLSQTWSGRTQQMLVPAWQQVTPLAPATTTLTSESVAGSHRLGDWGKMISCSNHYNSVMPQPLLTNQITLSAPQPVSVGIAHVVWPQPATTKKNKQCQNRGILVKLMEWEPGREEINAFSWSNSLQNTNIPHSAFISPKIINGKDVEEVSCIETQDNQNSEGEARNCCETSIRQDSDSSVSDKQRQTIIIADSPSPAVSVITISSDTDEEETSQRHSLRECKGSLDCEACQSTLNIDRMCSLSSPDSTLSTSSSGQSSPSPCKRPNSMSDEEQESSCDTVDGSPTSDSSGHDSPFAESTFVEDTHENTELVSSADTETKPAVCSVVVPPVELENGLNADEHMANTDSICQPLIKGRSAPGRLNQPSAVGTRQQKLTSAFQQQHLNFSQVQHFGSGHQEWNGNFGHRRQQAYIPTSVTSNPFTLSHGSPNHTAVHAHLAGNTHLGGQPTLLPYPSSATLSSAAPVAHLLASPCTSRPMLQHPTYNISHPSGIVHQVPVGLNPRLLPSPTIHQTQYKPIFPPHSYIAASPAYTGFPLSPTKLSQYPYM

[14] = target: JAK2 JH1 JH2 (human) (UniProt O60674)
[15] = target: MAP3K1 (human) (UniProt Q13233)
[16] = target: MAP3K5 (human) (UniProt Q99683)
[17] = target: MAPK1 (human) (UniProt P28482)
[18] = target: MAPK3 (human) (UniProt P27361)
[19] = target: MARK3 (human) (UniProt P27448)
[20] = target: MARK4 (human) (UniProt Q96L34)
Chain of MARK4 (human) (Q96L34 whole entry, looked up): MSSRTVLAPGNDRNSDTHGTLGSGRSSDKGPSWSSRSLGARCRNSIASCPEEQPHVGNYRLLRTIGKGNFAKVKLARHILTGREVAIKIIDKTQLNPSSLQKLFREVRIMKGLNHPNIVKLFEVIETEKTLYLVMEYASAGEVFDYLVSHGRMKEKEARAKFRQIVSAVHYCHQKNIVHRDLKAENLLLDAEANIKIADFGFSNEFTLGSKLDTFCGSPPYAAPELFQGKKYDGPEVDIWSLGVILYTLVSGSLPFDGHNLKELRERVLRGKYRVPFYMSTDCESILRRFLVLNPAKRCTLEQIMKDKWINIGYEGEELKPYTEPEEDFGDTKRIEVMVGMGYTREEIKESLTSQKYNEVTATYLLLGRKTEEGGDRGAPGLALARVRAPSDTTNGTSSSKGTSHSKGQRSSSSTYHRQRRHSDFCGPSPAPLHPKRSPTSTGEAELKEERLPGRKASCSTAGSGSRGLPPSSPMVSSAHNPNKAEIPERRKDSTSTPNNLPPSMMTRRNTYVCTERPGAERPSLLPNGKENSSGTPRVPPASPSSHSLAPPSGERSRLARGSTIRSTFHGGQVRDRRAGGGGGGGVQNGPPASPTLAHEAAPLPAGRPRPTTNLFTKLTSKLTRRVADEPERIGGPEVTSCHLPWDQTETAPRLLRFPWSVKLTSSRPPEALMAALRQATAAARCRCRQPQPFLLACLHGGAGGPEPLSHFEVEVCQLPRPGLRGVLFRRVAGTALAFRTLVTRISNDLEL

[21] = target: MST4 (human) (UniProt Q9P289)
[22] = target: NTRK1 (human) (UniProt P04629)
[23] = target: NUAK1 (human) (UniProt O60285)
[24] = target: PAK6 (human) (UniProt Q9NQU5)
[25] = target: PLK1 (human) (UniProt P53350)
[26] = target: PRKCA (human) (UniProt P17252)
[27] = target: PRKCZ (human) (UniProt Q05513)
[28] = target: RPS6KA1 KD1 KD2 (human) (UniProt Q15418)
[29] = target: RPS6KA3 KD1 KD2 (human) (UniProt P51812)
[30] = tested on: SGK1 (human), O00141 [S422D]
[31] = target: SRC (human) (UniProt P12931)
[32] = target: STK3 (human) (UniProt Q13188)

Chain of CHEK1 (human) (O14757 whole entry, looked up): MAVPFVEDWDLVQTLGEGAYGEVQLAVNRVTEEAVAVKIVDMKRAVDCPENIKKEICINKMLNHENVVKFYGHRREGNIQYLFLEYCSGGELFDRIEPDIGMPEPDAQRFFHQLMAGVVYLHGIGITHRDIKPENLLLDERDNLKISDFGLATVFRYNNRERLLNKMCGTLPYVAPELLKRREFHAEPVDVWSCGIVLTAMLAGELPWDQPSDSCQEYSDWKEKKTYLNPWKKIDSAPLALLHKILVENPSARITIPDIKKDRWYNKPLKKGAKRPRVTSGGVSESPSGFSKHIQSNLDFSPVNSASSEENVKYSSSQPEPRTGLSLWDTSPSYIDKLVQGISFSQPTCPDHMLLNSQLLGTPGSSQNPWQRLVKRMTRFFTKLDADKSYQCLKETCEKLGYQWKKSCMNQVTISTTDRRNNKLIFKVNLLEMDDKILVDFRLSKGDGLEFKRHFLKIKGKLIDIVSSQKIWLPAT
Chain of CLK2 (human) (P49760 whole entry, looked up): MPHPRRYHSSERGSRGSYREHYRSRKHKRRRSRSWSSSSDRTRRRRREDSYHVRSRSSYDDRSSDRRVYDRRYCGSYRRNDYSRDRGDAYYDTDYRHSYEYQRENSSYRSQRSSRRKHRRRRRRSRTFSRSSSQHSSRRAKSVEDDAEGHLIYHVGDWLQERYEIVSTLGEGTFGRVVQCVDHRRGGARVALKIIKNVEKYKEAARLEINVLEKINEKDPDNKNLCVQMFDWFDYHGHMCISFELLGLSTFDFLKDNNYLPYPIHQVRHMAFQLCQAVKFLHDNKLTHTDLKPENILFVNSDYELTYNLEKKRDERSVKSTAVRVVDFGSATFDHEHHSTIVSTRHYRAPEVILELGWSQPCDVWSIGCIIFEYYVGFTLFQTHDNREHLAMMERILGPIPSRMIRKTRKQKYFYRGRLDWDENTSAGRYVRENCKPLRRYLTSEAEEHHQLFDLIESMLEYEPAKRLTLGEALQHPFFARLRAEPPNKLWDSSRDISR

Work on `CC(C)C[C@H](NC(=O)CNC(=O)c1cc(Cl)ccc1Cl)B1OC(=O)CC(CC(=O)O)(C(=O)O)O1` (some centres not stated) yielded a residual activity [1] of 105%, a residual activity [2] of 90% and a residual activity [3] of 86%. For the same molecule, the residual activity [4] was 107%, the residual activity [5] was 89% and the residual activity [6] was 79%. For the same molecule, the residual activity [7] was 88%, the residual activity [8] was 83% and the residual activity [9] was 91%. For the same molecule, the residual activity [10] was 72%, the residual activity [11] was 64% and the residual activity [12] was 111%. It also gave a residual activity [13] of 118%, a residual activity [14] of 104% and a residual activity [15] of 92%. It also gave a residual activity [16] of 81%, a residual activity [17] of 86% and a residual activity [18] of 106%. For the same molecule, the residual activity [19] was 72%, the residual activity [20] was 86% and the residual activity [21] was 122%. For the same molecule, the residual activity [22] was 95%, the residual activity [23] was 78% and the residual activity [24] was 68%. It also gave a residual activity [25] of 97%, a residual activity [26] of 113% and a residual activity [27] of 95%. For the same molecule, the residual activity [28] was 80%, the residual activity [29] was 94% and the residual activity [30] was 78%. For the same molecule, the residual activity [31] was 86% and the residual activity [32] was 100%.
